pEC50, pIC50: −log10 of the molar value.
How the values were obtained:
SIK1 = SIK1 (Homo sapiens (Human), UniProt P57059); test: Pan SIK MS IC50 enzyme assay (SIK1); type: biochemical; settings: 1 mM ATP, substrate peptide AQT0868, LCMS/MS detection
Experimental: (§1) Enzyme Assay: Pan SIK MS IC50 Assay
(§2) Salt Induced Kinase (SIK) activity is determined by measuring the effect of a test agent on the activity of the appropriate SIK enzyme to phosphorylate its corresponding substrate. […] The phosphorylated substrate product resulting from the kinase reaction is detected by LCMS/MS, and the area under the peak curve correlates with kinase activity. […] The plates are spun at 1000 rpm for 30 seconds to ensure compounds are at the bottom of the well before removing foil covers. 0.15 μL HPE (assay std) and ZPE (DMSO) are added to the ARP using an HP D300 dispenser. Plates are spun again at 1000 rpm for 30 seconds. […] Plates are spun at 1000 rpm for 30 seconds. Plates are then sealed and incubated at RT for 10 minutes. Following incubation, 5 μL of 5× peptide reagent is added with a Multidrop Combi and designated small volume cassette to initiate the kinase reaction. Plates are spun at 1000 rpm for 30 seconds. Plates are then sealed and incubated at RT for 90 minutes. The assay is stopped by the addition of 5 μl of 120 mM EDTA added with a Multidrop Combi and designated small volume cassette (20 mM final concentration). Plates are spun at 1000 rpm for 30 seconds. 10 μl of the final reaction mix from each of the three individual enzyme plates are transferred by a Platemate Plus to the same corresponding 96 well deepwell plate containing 70 μl Water/Methanol (85/15%) for multiplex MS detection ([…]). Using Activity Base (ABase), an idbs data analysis software tool, the reported area ratio unit data is associated to compound, batch and dose information, the data is evaluated for quality, and the percent inhibition of each well is calculated. The data from each Max effect/HPE and Min effect/ZPE control wells are assessed, and outliers are excluded from all further calculations. The mean and standard deviation of the HPE and ZPE are then calculated for each plate, along with the Z Prime. The compound data is converted into % effect, using the average ZPE and HPE controls as 0% and 100% activity, respectively.

SIK2 = SIK2 (Homo sapiens (Human), UniProt Q9H0K1); test: Pan SIK MS IC50 enzyme assay (SIK2); type: biochemical; settings: 1 mM ATP, substrate peptide AQT0252, LCMS/MS detection
Sequence of SIK2 (Q9H0K1 whole entry, species assumed): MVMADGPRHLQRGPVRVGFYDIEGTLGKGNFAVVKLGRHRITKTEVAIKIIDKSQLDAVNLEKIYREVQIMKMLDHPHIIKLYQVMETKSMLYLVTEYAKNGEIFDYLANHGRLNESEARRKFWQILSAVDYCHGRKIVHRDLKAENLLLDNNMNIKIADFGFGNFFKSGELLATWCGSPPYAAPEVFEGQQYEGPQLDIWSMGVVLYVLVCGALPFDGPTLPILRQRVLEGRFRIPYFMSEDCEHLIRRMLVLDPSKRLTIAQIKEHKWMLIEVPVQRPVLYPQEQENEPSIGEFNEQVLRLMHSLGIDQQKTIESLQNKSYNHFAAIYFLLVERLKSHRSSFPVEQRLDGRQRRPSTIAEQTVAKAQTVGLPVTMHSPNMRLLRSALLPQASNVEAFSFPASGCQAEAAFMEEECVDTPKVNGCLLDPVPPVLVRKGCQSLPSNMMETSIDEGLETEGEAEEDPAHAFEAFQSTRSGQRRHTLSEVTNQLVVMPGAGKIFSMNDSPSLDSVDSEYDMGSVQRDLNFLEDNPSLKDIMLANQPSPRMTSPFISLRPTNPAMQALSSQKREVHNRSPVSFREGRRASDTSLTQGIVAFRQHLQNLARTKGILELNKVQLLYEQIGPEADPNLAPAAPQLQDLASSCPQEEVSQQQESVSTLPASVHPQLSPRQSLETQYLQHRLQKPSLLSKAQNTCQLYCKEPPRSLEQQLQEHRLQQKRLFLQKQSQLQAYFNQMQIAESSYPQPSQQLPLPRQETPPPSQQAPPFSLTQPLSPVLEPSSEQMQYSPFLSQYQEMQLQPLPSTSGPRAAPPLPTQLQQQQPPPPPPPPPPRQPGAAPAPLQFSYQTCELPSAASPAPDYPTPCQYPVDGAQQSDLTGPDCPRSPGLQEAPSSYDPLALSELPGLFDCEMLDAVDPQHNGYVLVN
Experimental: as §1, §2

SIK3 = SIK3 (Homo sapiens (Human), UniProt Q9Y2K2); test: Pan SIK MS IC50 enzyme assay (SIK3); type: biochemical; settings: 1 mM ATP, substrate peptide AQT0508, LCMS/MS detection
Sequence of SIK3 (Q9Y2K2 whole entry, species assumed): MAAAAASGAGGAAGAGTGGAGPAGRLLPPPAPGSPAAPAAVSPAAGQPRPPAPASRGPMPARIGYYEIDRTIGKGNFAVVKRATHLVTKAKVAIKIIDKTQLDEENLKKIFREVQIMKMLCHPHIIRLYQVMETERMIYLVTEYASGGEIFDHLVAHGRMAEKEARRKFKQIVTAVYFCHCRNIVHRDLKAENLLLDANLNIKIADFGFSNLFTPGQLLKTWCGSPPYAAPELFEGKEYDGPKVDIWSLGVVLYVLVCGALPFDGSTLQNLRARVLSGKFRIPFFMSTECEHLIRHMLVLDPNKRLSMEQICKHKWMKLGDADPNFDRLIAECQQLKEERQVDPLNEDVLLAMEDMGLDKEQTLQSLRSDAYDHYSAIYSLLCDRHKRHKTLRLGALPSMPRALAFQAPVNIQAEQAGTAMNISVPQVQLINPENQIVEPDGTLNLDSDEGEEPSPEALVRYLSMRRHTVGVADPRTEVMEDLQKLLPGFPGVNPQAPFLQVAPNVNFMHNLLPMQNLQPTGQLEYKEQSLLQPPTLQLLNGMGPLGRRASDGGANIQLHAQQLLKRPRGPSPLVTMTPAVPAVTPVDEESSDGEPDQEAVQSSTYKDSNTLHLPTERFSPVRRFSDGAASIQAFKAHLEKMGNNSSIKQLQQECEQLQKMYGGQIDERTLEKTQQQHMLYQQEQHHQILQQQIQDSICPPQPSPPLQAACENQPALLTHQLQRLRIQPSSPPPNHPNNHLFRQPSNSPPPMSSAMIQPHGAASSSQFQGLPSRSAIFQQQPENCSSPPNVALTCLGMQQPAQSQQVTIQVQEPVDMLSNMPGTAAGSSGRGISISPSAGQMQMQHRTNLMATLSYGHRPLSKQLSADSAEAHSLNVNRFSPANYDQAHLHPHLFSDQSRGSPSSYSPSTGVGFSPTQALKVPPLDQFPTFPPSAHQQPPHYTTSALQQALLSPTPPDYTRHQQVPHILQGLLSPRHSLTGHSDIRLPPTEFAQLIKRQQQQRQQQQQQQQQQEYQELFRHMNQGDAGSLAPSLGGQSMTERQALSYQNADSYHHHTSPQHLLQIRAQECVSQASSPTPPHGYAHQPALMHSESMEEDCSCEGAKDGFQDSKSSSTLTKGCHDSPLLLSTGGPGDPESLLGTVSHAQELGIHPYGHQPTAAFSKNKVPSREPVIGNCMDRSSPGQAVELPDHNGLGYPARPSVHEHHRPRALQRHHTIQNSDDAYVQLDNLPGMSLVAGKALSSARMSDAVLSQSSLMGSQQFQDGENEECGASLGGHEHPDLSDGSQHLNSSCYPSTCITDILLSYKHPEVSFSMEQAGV
Experimental: as §1, §2

[1] = test system: TNFα release from human monocyte derived macrophages stimulated with LPS; test: SIK macrophage cytokine assay, inhibition of TNFα release; type: cell-based; settings: Macrophage, 1 ng/mL LPS, 4 hours, HTRF, read-out: TNFa IC50
Experimental: (§3) Cytokine Assays: SIK Macrophage Assay Cytokine activity is determined by measuring the effect of a test agent on the inhibitory release of the cytokine TNFα and the increasing release of the cytokine IL10 from human monocyte derived macrophages (human macrophages) stimulated with lipopolysaccharide (LPS). At the time of assay, human macrophages (CGPS group Pfizer Groton, CT) are removed from cryopreservation, thawed quickly at 37° C., diluted in thaw medium (OptiMEM—Gibco medium, 10% heat inactivated fetal bovine serum (HIFBS)), and then centrifuged at 200×g for 10 minutes. […] After ˜60 minutes in an incubator at 37° C. in a humidified environment in 5% carbon dioxide the cells are stimulated by the addition of 5 μL of LPS (10 ng/mL; Sigma) and the assay plate is returned to an incubator at 37° C. in a humidified environment in 5% carbon dioxide for 4 hours. […] The final concentration of DMSO in the assay is approximately 0.1%. After 4 hours, the assay plate is removed from the incubator and centrifuged at 1500 rpm for 10 minutes. A portion of the resulting cell supernatant is then used to determine the amount of IL-10 and TNFα in each well. Cytokine measurements are made using human IL-10 and TNFα HTRF assay kits (Perkin Elmer) following the manufacturer's assay protocol.

[2] = test system: IL10 release from human monocyte derived macrophages stimulated with LPS; test: SIK macrophage cytokine assay, increase of IL10 release; type: cell-based; settings: Macrophage, 1 ng/mL LPS, 4 hours, HTRF
Experimental: as §3

Sequence of SIK1 (P57059 whole entry, species assumed): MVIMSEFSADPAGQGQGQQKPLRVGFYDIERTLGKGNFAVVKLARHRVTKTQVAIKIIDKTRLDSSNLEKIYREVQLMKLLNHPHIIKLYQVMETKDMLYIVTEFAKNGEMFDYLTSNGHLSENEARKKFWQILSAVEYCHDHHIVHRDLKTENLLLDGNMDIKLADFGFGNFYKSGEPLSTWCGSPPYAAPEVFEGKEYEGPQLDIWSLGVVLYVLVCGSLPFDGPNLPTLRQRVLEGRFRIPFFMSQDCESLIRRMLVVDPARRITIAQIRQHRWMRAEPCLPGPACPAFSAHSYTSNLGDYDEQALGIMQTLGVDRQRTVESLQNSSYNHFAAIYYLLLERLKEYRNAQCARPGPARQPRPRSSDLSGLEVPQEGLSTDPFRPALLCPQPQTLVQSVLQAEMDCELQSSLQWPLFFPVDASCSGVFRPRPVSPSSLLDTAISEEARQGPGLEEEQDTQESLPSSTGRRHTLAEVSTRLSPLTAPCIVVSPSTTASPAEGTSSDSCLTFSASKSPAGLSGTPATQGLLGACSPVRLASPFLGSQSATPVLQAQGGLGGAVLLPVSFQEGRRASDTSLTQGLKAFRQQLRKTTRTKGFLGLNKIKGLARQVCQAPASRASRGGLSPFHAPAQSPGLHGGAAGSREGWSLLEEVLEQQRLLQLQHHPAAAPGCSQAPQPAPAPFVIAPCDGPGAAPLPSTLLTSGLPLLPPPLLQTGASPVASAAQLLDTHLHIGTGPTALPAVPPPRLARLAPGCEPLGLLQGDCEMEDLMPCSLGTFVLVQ

Row | Structure (SMILES) | pIC50 (SIK1) | pIC50 (SIK2) | pIC50 (SIK3) | pIC50 [1] | pEC50 [2]
1 | CSc1cc(-c2cnc3ccc(C)c(C#N)n23)cc(OCC2(N)CCCC2)c1C#N [Example 40, 3-(3-((1-Aminocyclopentyl)methoxy)-4-cyano-5-(methylthio)phenyl)-6-methylimidazo[1,2-a]pyridine-5-carbonitrile] | 9.40 | 9.22 | 8.80 | 8.21 | 7.77
2 | CSc1cc(-c2cnc3cc(C)cc(C#N)n23)cc(OCC2(N)CCCC2)c1C#N [Example 41, 3-(3-((1-Aminocyclopentyl)methoxy)-4-cyano-5-(methylthio)phenyl)-7-methylimidazo[1,2-a]pyridine-5-carbonitrile] | 8.72 | 9.10 | 9.15 | 8.28 | 7.27
3 | CSc1cc(-c2cnc3cc(Cl)cc(C#N)n23)cc(OCC2(N)CCCC2)c1C#N [Example 42, 3-(3-((1-Aminocyclopentyl)methoxy)-4-cyano-5-(methylthio)phenyl)-7-chloroimidazo[1,2-a]pyridine-5-carbonitrile] | 8.52 | 9.05 | 8.66 | 7.97 | 7.07
4 | CCc1ccc2ncc(-c3cc(OCC4(N)CCCC4)c(C#N)c(SC)c3)n2c1C#N [Example 44, 3-(3-((1-Aminocyclopentyl)methoxy)-4-cyano-5-(methylthio)phenyl)-6-ethylimidazo[1,2-a]pyridine-5-carbonitrile] | 8.64 | 8.77 | 8.68 | 7.68 | 7.42
5 | CSc1cc(-c2cnc3ccc(N)c(C#N)n23)cc(OCC2(N)CCCC2)c1C#N [Example 45, 6-Amino-3-(3-((1-aminocyclopentyl)methoxy)-4-cyano-5-(methylthio)phenyl)imidazo[1,2-a]pyridine-5-carbonitrile] | 10.00 | 9.70 | 9.40 | 9.22 | 8.52
6 | COc1cc(-c2cnc3ccc(N(C)C)c(C#N)n23)cc(OCC2(N)CCCC2)c1C#N [Example 48, 3-(3-((1-Aminocyclopentyl)methoxy)-4-cyano-5-methoxyphenyl)-6-(dimethylamino)imidazo[1,2-a]pyridine-5-carbonitrile] | 9.40 | 9.15 | 8.77 | 9.10 | 8.40
7 | COc1cc(C#N)n2c(-c3cc(OCC4(N)CCCC4)c(C#N)c(SC)c3)cnc2c1 [Example 50, 3-(3-((1-Aminocyclopentyl)methoxy)-4-cyano-5-(methylthio)phenyl)-7-methoxyimidazo[1,2-a]pyridine-5-carbonitrile] | 8.92 | 9.30 | 9.10 | 8.38 | 7.54
8 | COc1cc(C#N)n2c(-c3cc(OC)c(C#N)c(OCC4(N)CCCCC4)c3)cnc2c1 [Example 52, 3-(3-((1-Aminocyclohexyl)methoxy)-4-cyano-5-methoxyphenyl)-7-methoxyimidazo[1,2-a]pyridine-5-carbonitrile] | 8.29 | 8.96 | 8.68 | 7.92 | 6.75
9 | CNc1ccc2ncc(-c3cc(OCC4(N)CCCC4)c(C#N)c(SC)c3)n2c1C#N [Example 53, 3-(3-((1-Aminocyclopentyl)methoxy)-4-cyano-5-(methylthio)phenyl)-6-(methylamino)imidazo[1,2-a]pyridine-5-carbonitrile] | 10.00 | 9.40 | 8.82 | 9.30 | 8.40

More lines, now with the values ahead:

Row | pIC50 (SIK1) | pIC50 (SIK2) | pIC50 (SIK3) | pIC50 [1] | pEC50 [2] | Structure (SMILES)
10 | 9.70 | 9.40 | 8.96 | 9.22 | 8.70 | CSc1cc(-c2cnc3ccc(N(C)C)c(C#N)n23)cc(OCC2(N)CCCC2)c1C#N [Example 43, 3-(3-((1-Aminocyclopentyl)methoxy)-4-cyano-5-(methylthio)phenyl)-6-(dimethylamino)imidazo[1,2-a]pyridine-5-carbonitrile]
11 | 9.10 | 8.82 | 8.55 | 8.16 | 7.55 | CSc1cc(-c2cnc3ccc(N4CCC4)c(C#N)n23)cc(OCC2(N)CCCC2)c1C#N [Example 46, 3-(3-((1-Aminocyclopentyl)methoxy)-4-cyano-5-(methylthio)phenyl)-6-(azetidin-1-yl)imidazo[1,2-a]pyridine-5-carbonitrile]
12 | 9.70 | 9.40 | 9.05 | 8.85 | 8.22 | CSc1cc(-c2cnc3ccc(N4CCCC4)c(C#N)n23)cc(OCC2(N)CCCC2)c1C#N [Example 47, 3-(3-((1-Aminocyclopentyl)methoxy)-4-cyano-5-(methylthio)phenyl)-6-(pyrrolidin-1-yl)imidazo[1,2-a]pyridine-5-carbonitrile]
13 | 9.05 | 9.15 | 8.62 | 8.19 | 7.74 | COc1ccc2ncc(-c3cc(OCC4(N)CCCCC4)c(C#N)c(SC)c3)n2c1C#N [Example 49, 3-(3-((1-Aminocyclohexyl)methoxy)-4-cyano-5-(methylthio)phenyl)-6-methoxyimidazo[1,2-a]pyridine-5-carbonitrile]
14 | 8.82 | 9.30 | 8.80 | 8.24 | 7.59 | COc1cc(C#N)n2c(-c3cc(OCC4(N)CCCCC4)c(C#N)c(SC)c3)cnc2c1 [Example 51, 3-(3-((1-Aminocyclohexyl)methoxy)-4-cyano-5-(methylthio)phenyl)-7-methoxyimidazo[1,2-a]pyridine-5-carbonitrile]
